# How the values were obtained:
# BhorOBPm2 [1] = target: T1, BhorOBPm2 (Batocera horsfieldi, UniProt D4P5A8); experiment: 1-NPN fluorescence competition binding; conditions: pH 7.4, 30 mM Tris-HCl, room temperature, 2 μM protein, 2 μM 1-NPN
# T1 construct: antennal cDNA, ORF 435 bp, 145 residues printed incl; 21-residue signal peptide; reverse primer encodes ETFIFF-stop
# BhorOBPm2 [2] = target: T1, BhorOBPm2; experiment: direct 1-NPN fluorescence titration, Scatchard plot; assay type: binding; conditions: 30 mM Tris-HCl, room temperature, 2 μM protein, 0-28 μM 1-NPN; fluorescent probe
# CquiOBP1 = conditions: cited from earlier work
# BhorOBPm2 [3] = experiment: Fluorescence competition-binding assay with 1-NPN probe, wild-type BhorOBPm2; set-up: species or system Batocera horsfieldi; conditions: BhorOBPm2, discussion
# Method: Fluorescence competition-binding assays were performed to determine the binding affinity of the BhorOBPm2 protein for various ligands using 1-NPN as a fluorescent probe. […] The fluorescence of 1-NPN was excited at 337 nm, and emission was recorded at between 350 nm and 600 nm using a RF-5301PC fluorescence spectrophotometer (Shimadzu, Kyoto, Japan), a 1-cm light path, and a quartz cuvette. The competitive binding of ligands was measured using 1-NPN (2 μM) as the fluorescent probe with a stoichiometry of 1:1 (protein:ligand), with the final concentration of each ligand added to the sample ranging from 0 μM to 20 μM. […] The binding data were obtained from three independent measurements. […] Binding affinities (Ki) of the OBPs for each ligand were determined based on the IC50 value (the initial fluorescence level of the competitor concentration reduced by half) using the equation: Ki = [IC50]/(1 + [1-NPN]/K1-NPN), where [1-NPN] is the free concentration of 1-NPN, and K1-NPN is the dissociation constant of the complex BhorOBPm2/1-NPN.
# BhorOBPm2 [4] = target: T1, BhorOBPm2; experiment: 1-NPN fluorescence competition binding; conditions: pH 7.4, 30 mM Tris-HCl, room temperature, 2 μM protein, 2 μM 1-NPN; reciprocal Ki, not Ki itself
# T1 sequence (D4P5A8 entry or part of it): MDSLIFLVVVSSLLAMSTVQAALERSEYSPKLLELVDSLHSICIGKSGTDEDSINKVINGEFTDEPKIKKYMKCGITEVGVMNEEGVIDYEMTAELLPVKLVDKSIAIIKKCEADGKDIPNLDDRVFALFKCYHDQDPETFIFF
compound,measurement,setting,value
CCCCCCCCCCCC(C)=O [2-tridecanone],1/Ki*1000,BhorOBPm2 [1],353.05 1/Ki(uM)*1000
c1ccc(Nc2cccc3ccccc23)cc1 [N-phenyl-1-naphthylamine],Kd,BhorOBPm2 [2],The dissociation constants (Kd) of the OBPs for 1-NPN were calculated from Scatchard plots
"CCCCCCCC=O [Octanal, octanal]",binding affinity (in words),CquiOBP1,high binding affinities
CCCCCCCCCC=O [decanal],binding affinity (in words),CquiOBP1,high binding affinities
same,1/Ki*1000,BhorOBPm2 [1],102.21 1/Ki(uM)*1000
CCCCCCCCCCCCCCCCCCCCCCCCCCC [heptacosane],binding affinity (in words),BhorOBPm2 [3],low binding affinities
same,1/Ki*1000,BhorOBPm2 [1],45.56 1/Ki(uM)*1000
CCCCCCCCC=O [nonanal],binding affinity (in words),CquiOBP1,high binding affinities
same,1/Ki*1000,BhorOBPm2 [1],50.40 1/Ki(uM)*1000
CCCCCCCC=O [octanal],1/Ki*1000,BhorOBPm2 [1],54.09 1/Ki(uM)*1000
CCCCCCCCCCCCCCCCCCCCCCCCC [pentacosane],binding affinity (in words),BhorOBPm2 [3],low binding affinities
same,1/Ki*1000,BhorOBPm2 [1],1.89 1/Ki(uM)*1000
CCCCCCCCCCCCCC [tetradecane],1/Ki*1000,BhorOBPm2 [1],94.91 1/Ki(uM)*1000
CCCCCCCCCCCCC [tridecane],1/Ki*1000,BhorOBPm2 [1],262.09 1/Ki(uM)*1000
Farnesene,1/Ki(μM) × 1000,BhorOBPm2 [4],"1159.11 1000/μM (reciprocal of Ki in μM, times 1000)"
farnesene,binding affinity (in words),BhorOBPm2 [3],highest binding affinity

# Reference: PMC5034290, “Predicted structure of a Minus-C OBP from Batocera horsfieldi (Hope) suggests an intermediate structure in evolution of OBPs” (Scientific Reports, 2016)
